According to ChEMBL document CHEMBL1124653, “11 beta-nitrate estrane analogues: potent estrogens” (1989):

Target: Estrogen receptor (Rattus norvegicus) (UniProt P06211+Q62986)
Experiment: Estrogenic potency in rats by subcutaneous dose relative to estradiol
Assay type: functional

Compared with `CC(=O)Oc1ccc2c(c1)CC[C@H]1[C@@H]3CCC(=O)[C@@]3(C)C[C@H](O[N+](=O)[O-])[C@]21O`, `CC(=O)Oc1ccc2c(c1)C[C@@H](C)[C@@H]1[C@@H]2[C@@H](O[N+](=O)[O-])C[C@]2(C)C(=O)CC[C@@H]12` (stereo in doubt; 2b) is higher in Relative potency: 4 for the first, 34 for the second.

`CC(=O)Oc1ccc2c(c1)C[C@@H](C)[C@@H]1[C@@H]2[C@@H](O[N+](=O)[O-])C[C@]2(C)C(=O)CC[C@@H]12` (stereo in doubt; 3b) showed a Relative potency of 7470.
